Where two headings read alike, the source gives them in different places.
Target: human 11b-hsd-1 (Homo sapiens, UniProt P28845)
Assay: Inhibition constant Ki of human 11b-hsd-1 (3H-cortisone to 3H-cortisol conversion, HPLC)
Assay type: biochemical
Settings: for Ki: apparent Ki, read-out: Ki app

human 11b-hsd-1, sequence (P28845 whole entry): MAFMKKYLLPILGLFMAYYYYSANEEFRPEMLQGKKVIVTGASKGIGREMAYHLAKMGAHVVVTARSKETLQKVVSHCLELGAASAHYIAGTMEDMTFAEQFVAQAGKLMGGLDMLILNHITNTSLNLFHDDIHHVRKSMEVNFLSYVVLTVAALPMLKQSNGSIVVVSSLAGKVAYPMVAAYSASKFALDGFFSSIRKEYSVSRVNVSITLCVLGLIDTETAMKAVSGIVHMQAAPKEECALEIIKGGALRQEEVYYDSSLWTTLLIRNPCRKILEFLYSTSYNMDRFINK

SMILES	inhibition at 0.1 µM (0.1 μM compound) [%]	Ki [nM]	Ki (human 11b-hsd-1) [nM]	inhibition at 0.1 µM (compound at 0.1 μM) [%]
O=C(NC12CC3CC(CC(C3)C1)C2)[C@H]1CCCC[C@H]1NCc1ccc(Cl)cc1 (racemic) [Example 201]	100	5.9		
O=C(NC12CC3CC(CC(C3)C1)C2)[C@@H]1[C@H]2CC[C@H](C2)N1Cc1ccc(Cl)cc1 (racemic) [Example 204]	100	1		
O=C(NC12CC3CC(CC(C3)C1)C2)[C@H]1[C@H]2CC[C@H](C2)N1Cc1ccc(Cl)cc1 (relative stereo) [Example 203]	100	1		
CC(C)CN1[C@H]2CC[C@H](C2)[C@H]1C(=O)NC12CC3CC(CC(C3)C1)C2 (relative stereo) [Example 209]	100	1.9		
CC(C)CN1[C@H]2CC[C@H](C2)[C@@H]1C(=O)NC12CC3CC(CC(C3)C1)C2 (relative stereo) [Example 210]	100	1		
CCN1CCOC[C@@H]1C(=O)NC1C2CC3CC(C2)CC1C3 (stereo partly drawn) [Example 1, (R)-4-Ethyl-morpholine-3-carboxylic acid adamantan-2-ylamide]			2.1	100
O=C(NC1C2CC3CC(C2)CC1C3)[C@H]1COCCN1Cc1ccccc1 (some centres unmarked) [Example 2]			2.4	100
O=C(NCc1ccccc1)[C@H]1CCCN1CC1CCCCC1 [Example 3, N-benzyl-1-(cyclohexylmethyl)-D-prolinamide]			15	92
CC(C)CN1CCC[C@@H]1C(=O)NCc1ccccc1 [Example 4]			3.6	94
O=C(NCc1ccccc1)[C@@H]1CCCN1CC1CCCCC1 [Example 5, N-benzyl-1-(cyclohexylmethyl)-L-prolinamide]				29
O=C(NC12CC3CC(CC(C3)C1)C2)[C@H]1CCCN1CC1CCCCC1 [Example 9, N-1-adamantyl-1-(cyclohexylmethyl)-D-prolinamide]			1.7	100
O=C(NC12CC3CC(CC(C3)C1)C2)[C@H]1CCCN1Cc1ccc(Cl)cc1 [Example 10]			0.85	100
CN(C(=O)[C@H]1COCCN1CC1CCCCC1)C1CCCCC1 [Example 11, (3R)-N-cyclohexyl-4-(cyclohexylmethyl)-N-methylmorpholine-3-carboxamide]			38.3	80
CCN1CCCC[C@@H]1C(=O)NC12CC3CC(CC(C3)C1)C2 [Example 12]			14	89
O=C(NCc1ccc(Cl)cc1)[C@H]1CCCN1CC1CCCCC1 [Example 13]			1	85
CC(=O)N1CCC[C@@H]1C(=O)NC1C2CC3CC(C2)CC1C3 (stereo partly drawn) [Example 18, N-2-adamantyl-1-acetyl-D-prolinamide]			16.4	85
NC(=O)CN1CCC[C@@H]1C(=O)NC1C2CC3CC(C2)CC1C3 (some centres unmarked) [Example 19]			17	86
CN1CCC[C@@H]1C(=O)NC12CC3CC(CC(C3)C1)C2 [Example 20]			23.3	72
CCCN1CCC[C@@H]1C(=O)NC12CC3CC(CC(C3)C1)C2 [Example 21]			1.2	100
O=C(NC12CC3CC(CC(C3)C1)C2)[C@H]1CCCN1CC(F)(F)F [Example 22]			0.85	100
CCN1CCC[C@@H]1C(=O)NC12CC3CC(CC(C3)C1)C2 [Example 23]			2.6	94
CCN1C[C@H](O)C[C@@H]1C(=O)NC1C2CC3CC(C2)CC1C3 (some centres unmarked) [Example 24]			1.4	100
CC(C)CN1C[C@H](O)C[C@@H]1C(=O)NC1C2CC3CC(C2)CC1C3 (some centres unmarked) [Example 25]			1.7	100
O=C(NC1C2CC3CC(C2)CC1C3)[C@H]1C[C@@H](O)CN1Cc1ccccc1 (some centres unmarked) [Example 26]			1	100

— patent US20050261290A1, “Novel compounds of proline and morpholine derivatives” (priority 2004, published 2005)
